Source: ChEMBL document CHEMBL1949564, “Inhibitory activity of eudesmane sesquiterpenes from Alpinia oxyphylla on production of nitric oxide” (Bioorg Med Chem Lett, 2012)
≈ marks a conversion by molar mass, not a printed value. Residues, ends and D or L forms follow the SMILES beside them. *: point of attachment. Cbz = O=C(OCc1ccccc1)*

Columns and labels:
RAW264.7 [1] = experiment: Antiinflammatory activity in mouse RAW264.7 cells assessed as inhibition of IFNgamma-induced NO production after 5 mins by Greiss method; type: functional, cell-based; conditions: RAW264.7, 5 min
RAW264.7 [2] = experiment: Antiinflammatory activity in mouse RAW264.7 cells assessed as inhibition of LPS-induced NO production after 5 mins by Greiss method; type: functional, cell-based; conditions: RAW264.7, 5 min

Structure (SMILES)	IC50 (RAW264.7 [1]) [µg/mL]	IC50 (RAW264.7 [2]) [µg/mL]
C=C(C)[C@@H]1CC[C@]2(C)C(=C(C)C(=O)C[C@H]2O)C1 [LIGUCYPERONOL]	12.1 (≈ 51.8 µM)	12.1 (≈ 51.8 µM)
C=C(C)[C@@]1(O)CC[C@]2(C)CC(=O)C=C(C)[C@H]2C1 [TEUCRENONE]	11.4 (≈ 48.5 µM)	11.4 (≈ 48.5 µM)
CC1=C2C=C(C(C)(O)CO)CC[C@]2(C)CCC1=O (stereo partly drawn) [OXYPHYLLANENE F]	13.9 (≈ 55.7 µM)	13.9 (≈ 55.7 µM)
CC(C)C[C@@H](C=O)NC(=O)[C@H](CC(C)C)NC(=O)[C@H](CC(C)C)NC(=O)OCc1ccccc1 [MG-132] (Cbz-Leu-Leu-Leu-aldehyde)	0.17 (≈ 0.357 µM)	0.17 (≈ 0.357 µM)
C[C@@]12CCC[C@](C)(O)C1=CC(=O)CC2 [TEUHETENONE A]	12.9 (≈ 66.6 µM)	12.9 (≈ 66.6 µM)
C=C(C)[C@@H]1CC[C@@]2(C)CCC(=O)C(C)=C2[C@@H]1O	12.5 (≈ 53.4 µM)	12.5 (≈ 53.4 µM)
C=C(C)[C@]1(O)CC[C@@]2(C)CCC(=O)[C@@]3(C)O[C@@]23C1 [OXYPHYLLANENE D]	9.85 (≈ 39.3 µM)	9.85 (≈ 39.3 µM)
C[C@@]12CCC(=O)C=C1[C@@](C)(O)[C@H](O)CC2 [OXYPHYLLENONE A]	12 (≈ 57 µM)	12 (≈ 57 µM)

The next lines start with the values.

IC50 (RAW264.7 [1]) [µg/mL]	IC50 (RAW264.7 [2]) [µg/mL]	Structure (SMILES)
11.4 (≈ 48.6 µM)	11.4 (≈ 48.6 µM)	C=C(C)[C@]1(O)CC[C@@]2(C)CCC(=O)C(C)=C2C1
11.6 (≈ 49.6 µM)	11.6 (≈ 49.6 µM)	C=C(C)[C@]1(O)CC[C@]2(C)CC(=O)C=C(C)[C@H]2C1
13.3 (≈ 52.6 µM)	13.3 (≈ 52.6 µM)	CC1=C2C[C@H](C(C)(O)CO)CC[C@@]2(C)CCC1=O (stereo partly drawn)
13.5 (≈ 56.8 µM)	13.5 (≈ 56.8 µM)	C=C(C)[C@@H]1CC[C@@]2(C)[C@H](O)CC[C@](C)(O)[C@@H]2C1 (racemic)
11 (≈ 47 µM)	11 (≈ 47 µM)	CC(=O)[C@]12CC[C@@]3(C)CCC(=O)C(C)=C3[C@H]1O2 [OXYPHYLLANENE C]
13.5 (≈ 57.2 µM)	13.5 (≈ 57.2 µM)	C=C1[C@@H](O)CC[C@]2(C)CC[C@](O)(C(=C)C)C[C@@H]12 (relative stereo)
